Test results published in patent US20230219951A1, “PYRIDINE-PYRIMIDINE DERIVATIVE, PREPARATION METHOD THEREFOR AND PHARMACEUTICAL USE THEREOF” (Jiangsu Hengrui Pharmaceuticals Co., Ltd., priority 2020, published 2023).

Key:
CYP2C19 = target: T1, CYP2C19 (Homo sapiens, UniProt P33261); assay: Human liver microsome CYP450 inhibition, CYP2C19 (S)-mephenytoin 4'-hydroxylation; format: in vitro ADME; conditions: human liver microsomes, (S)-mephenytoin probe substrate
T1 construct: tissue Corning Gentest 452161; host or cells: human liver microsomes
Description: (§1) The inhibition effect of the compounds of the present disclosure on the human liver microsome CYP450 enzyme was determined by the following method:
(§2) An appropriate amount of human liver microsome stock solution (20 mg/mL) was diluted to obtain a 0.25 mg/mL microsome solution with 7.5 mM MgC12 solution for later use (prepared right before use).
(§3) b. An appropriate amount of the stock solution was precisely pipetted, and diluted into series solution I at the concentrations of 10 mM, 3 mM, 1 mM, 0.3 mM, 0.03 mM and 0.003 mM with an appropriate amount of DMSO solution. An appropriate amount of the above series solution I was precisely pipetted, and diluted to obtain series solution II at the concentrations of 3 mM, 1 mM, 0.3 mM, 0.1 mM, 0.03 mM, 0.003 mM and 0.0003 mM with an appropriate amount of acetonitrile. An appropriate amount of the above series solution II was precisely pipetted, and diluted with PBS to obtain a working solution at the concentrations of 150 μM, 50 μM, 15 μM, 5μM, 1.5 μM, 0.15 μM and 0.015 μM for later use.
a. […]
(§4) The values were calculated by Graphpad Prism to obtain the IC50 values for the inhibition of drugs on CYP2C19 (S)-mephenytoin 4′-hydroxylation and CYP3A4M midazolam 1-hydroxylation metabolism in human liver microsomes, as shown in Table 6.

CYP3A4M = target: T2, CYP3A4M (Homo sapiens, UniProt P08684); assay: Human liver microsome CYP450 inhibition, CYP3A4M midazolam 1-hydroxylation; format: in vitro ADME; conditions: human liver microsomes, midazolam probe substrate
T2 construct: tissue Corning Gentest 452161; host or cells: human liver microsomes
Description: as §1, §2, §3
a. […]
as §4

[1] = Pharmacokinetic evaluation in nude mice; format: in vivo; conditions: female, mouse, plasma, po, BALB/C nude mice, intragastric administration, 50 mg/kg
Description: The drug concentration in the plasma of the test animals (nude mice) at different time points after intragastric administration (i.g.) of compound 18-p1 was determined by using an LC/MS/MS method. The pharmacokinetic behavior of the compound of the present disclosure in nude mice was studied and its pharmacokinetic profile was evaluated.
Nine BALB/C nude mice, female, intragastric administration, purchased from Beijing Vital River Laboratory Animal Technology Co., Ltd., with animal production license number of SCXK (Shanghai) 2017-0005.
An amount of compound 18-p1 was weighed, dissolved in 0.5% by volume of CMCNa, and then prepared into a 2.5 mg/mL clear solution with 99.5% normal saline.
The nude mice were intragastrically administered at a dose of 50.0 mg/kg and a volume of 20.0 mL/kg.
The compound 18-p1 was administered intragastrically to nude mice, and 0.1 mL of blood was collected from the orbit before administration and 0.25 h, 0.5 h, 1.0 h, 2.0 h, 4.0 h, 6.0 h, 8.0 h, 11.0 h and 24.0 h after administration. The blood was placed in an EDTA-K2 anticoagulation tube and centrifuged at 10,000 rpm for 1 min (4° C.), and plasma was separated out within 1 h and then stored at −20° C. for testing. The process from blood sampling to centrifugation was performed under an ice bath.
The content of the test compounds at different concentrations in plasma of nude mice after administration was determined: 25 μL of plasma of nude mice at each time point after administration was taken, and 200 μL of acetonitrile (containing 50 μL of internal standard solution camptothecin, 100 ng/mL) was added; the mixture was vortexed for 5 min, and centrifuged for 10 min (4000 r/min). 0.5 μL of supernatant was taken from the plasma sample for LC/MS/MS analysis.

T2 sequence (P08684 whole entry): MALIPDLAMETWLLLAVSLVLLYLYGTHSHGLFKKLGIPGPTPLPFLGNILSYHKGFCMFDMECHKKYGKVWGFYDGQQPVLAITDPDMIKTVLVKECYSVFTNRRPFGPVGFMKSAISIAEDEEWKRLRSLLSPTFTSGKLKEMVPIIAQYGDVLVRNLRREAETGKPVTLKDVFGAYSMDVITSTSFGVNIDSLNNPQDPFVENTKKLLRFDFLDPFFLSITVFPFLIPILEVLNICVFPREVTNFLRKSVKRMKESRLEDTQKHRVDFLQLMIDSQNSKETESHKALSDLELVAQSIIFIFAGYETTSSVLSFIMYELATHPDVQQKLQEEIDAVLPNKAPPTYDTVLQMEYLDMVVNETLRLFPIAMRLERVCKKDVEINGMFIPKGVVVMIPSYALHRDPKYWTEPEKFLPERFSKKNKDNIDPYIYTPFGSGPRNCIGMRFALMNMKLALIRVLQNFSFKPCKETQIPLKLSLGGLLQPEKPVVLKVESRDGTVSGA
T1 sequence (P33261 whole entry): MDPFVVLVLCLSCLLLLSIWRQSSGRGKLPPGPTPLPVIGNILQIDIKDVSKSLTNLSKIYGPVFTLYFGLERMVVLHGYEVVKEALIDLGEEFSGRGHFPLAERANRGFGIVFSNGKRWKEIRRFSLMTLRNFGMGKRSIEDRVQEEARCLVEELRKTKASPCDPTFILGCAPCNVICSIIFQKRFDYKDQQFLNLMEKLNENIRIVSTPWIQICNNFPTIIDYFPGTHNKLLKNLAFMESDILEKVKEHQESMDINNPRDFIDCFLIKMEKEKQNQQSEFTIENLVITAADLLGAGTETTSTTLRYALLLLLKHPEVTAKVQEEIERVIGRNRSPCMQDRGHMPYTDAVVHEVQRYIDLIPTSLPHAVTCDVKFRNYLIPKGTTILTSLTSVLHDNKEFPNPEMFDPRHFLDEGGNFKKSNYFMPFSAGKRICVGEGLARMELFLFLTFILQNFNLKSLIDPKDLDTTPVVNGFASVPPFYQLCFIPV

IC50 (CYP2C19): > 30 µM
IC50 (CYP3A4M): > 30 µM
Vd/F ([1]; read-out: Apparent distribution volume Vz/F): 16.6 L/kg
AUC(0-t) ([1]; read-out: Area under curve AUC0-t): 5150 ng·h/mL
CL/F ([1]; read-out: Clearance CLz/F): 160 mL/min/kg
half-life ([1]; read-out: Half-life T½ (converted)): 1.2 h
Cmax ([1]; read-out: Plasma concentration Cmax): 1560 ng/mL
Structure (SMILES): Cc1nc(N[C@H](C)c2cccc(C(F)F)c2F)c2cc([C@]3(O)CC[C@@H](O)CC3)c(=O)[nH]c2n1 [Example 18-p1, 4-(((R)-1-(3-(difluoromethyl)-2-fluorophenyl)ethyl)amino)-6-((1s,4S)-1,4-dihydroxycyclohexyl)-2-methylpyrido[2,3-d]pyrimidin-7(8H)-one]
